Experimental data: patent publication US20090105278A1, “Selective inhibitors of human corticosteroid syntheses” (Universitat Des Saarlandes, priority 2004, published 2009)
Counter-ions that a name gives are not always drawn.

Columns and labels:
[1] = molecular target: T1, human CYP17 (Homo sapiens, UniProt P05093); assay: Percent inhibition of CYP17 (membrane fraction of E. coli pJL17/OR); assay type: biochemical; settings: E. coli which expresses human CYP17, 5 mg/ml protein, progesterone substrate 2.5 μM, inhibitor 2.5 μM; for inhibition at 2.5 µM: read-out: % Inhibition human CYP17
T1 construct: made in house; host or cells: E. coli pJL17/OR (membrane fraction)
T1 sequence (P05093 1-508): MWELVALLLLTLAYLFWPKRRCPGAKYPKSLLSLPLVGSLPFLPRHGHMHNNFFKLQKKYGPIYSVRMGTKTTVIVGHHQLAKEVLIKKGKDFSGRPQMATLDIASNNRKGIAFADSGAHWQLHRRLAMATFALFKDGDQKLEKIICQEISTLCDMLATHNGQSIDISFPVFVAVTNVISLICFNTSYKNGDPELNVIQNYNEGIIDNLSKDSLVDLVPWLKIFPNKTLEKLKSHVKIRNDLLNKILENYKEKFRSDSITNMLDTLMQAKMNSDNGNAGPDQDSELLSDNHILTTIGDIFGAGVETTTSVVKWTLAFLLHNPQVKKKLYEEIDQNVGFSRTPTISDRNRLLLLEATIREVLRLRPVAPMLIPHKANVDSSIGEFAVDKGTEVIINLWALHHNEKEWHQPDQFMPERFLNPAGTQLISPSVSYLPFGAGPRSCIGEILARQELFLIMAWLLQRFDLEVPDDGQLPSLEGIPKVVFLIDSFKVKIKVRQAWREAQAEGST
Summary of the method: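 Membranes were isolated from E. coli pJL17/OR, which coexpresses human CYP17 with rat NADPH-P450-reductase, by lysozyme treatment, sonication and centrifugation at 50,000 g, then stored at −70° C. Reactions were started with diluted membrane suspension (0.8 to 1 mg of protein per ml), incubated at 37° C for 30 min, extracted with EtOAc and analyzed by HPLC. Inhibition was calculated from reduced substrate conversion versus DMSO controls.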

[2] = molecular target: T2, human CYP11B2 (Homo sapiens, UniProt P19099); assay: V79 MZh 11B2 cells inhibition test; assay type: cell-based; design: expressed in transfected cells; host or cells: V79 MZh11B2 (Chinese hamster lung fibroblasts); settings: hamster fibroblasts which express human CYP11B2; deoxycorticosterone substrate 100 nM; read-out: IC50 V79 11B2 hCYP11B2
T2 sequence (P19099 25-503): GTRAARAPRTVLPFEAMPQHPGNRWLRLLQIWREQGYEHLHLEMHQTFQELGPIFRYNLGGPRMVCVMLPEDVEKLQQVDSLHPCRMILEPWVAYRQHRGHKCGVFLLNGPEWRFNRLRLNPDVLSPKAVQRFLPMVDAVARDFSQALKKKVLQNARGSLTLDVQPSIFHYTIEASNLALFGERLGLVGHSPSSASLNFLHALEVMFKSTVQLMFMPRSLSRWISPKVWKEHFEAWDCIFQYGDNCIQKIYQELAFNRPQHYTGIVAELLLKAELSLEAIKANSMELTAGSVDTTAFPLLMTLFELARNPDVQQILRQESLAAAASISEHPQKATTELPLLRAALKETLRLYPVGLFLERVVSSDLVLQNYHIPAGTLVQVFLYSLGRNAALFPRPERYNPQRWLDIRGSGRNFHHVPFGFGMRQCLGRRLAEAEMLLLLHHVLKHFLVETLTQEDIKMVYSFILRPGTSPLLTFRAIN
Description: Both cell lines were cultured in DMEM^+ containing […] and the antibiotics penicillin and streptomycin (10%) for protection from bacterial contamination. The cells were passaged every 2-3 days after treatment with trypsin/EDTA because the doubling rate was 1-2 days depending on the number of cells. […] When there was further need, freshly thawed cells were employed.
Thereafter, the plate was stored at 37° C. and […] in a CO2 incubator. The V79 MZh 11B1 cells were incubated for 120 min, and the V79 MZh 11B2 cells were incubated for 40 min. Controls without inhibitor were treated in the same way. The enzyme reactions were quenched by extracting the supernatant with 500 μl of EtOAc. The samples were centrifuged (10,000 g, 2 min), the solvent was removed and evaporated.
For V79 MZh11B2, the conversion rate was obtained in accordance with equation 3: […]
It was calculated by determining the percent inhibition for at least 3 different inhibitor concentrations, which must all be in the linear range of the sigmoidal IC50 curve (log C/% inhibition).
The calculation was effected by linear regression. The values determined were used only if they formed a straight line with a reliability of […].
The plate was developed twice with the mobile solvent chloroform:methanol:water (300:20:1). Unlabeled 11-deoxycorticosterone and corticosterone were applied as a reference for the CYP11B1 reaction. For the CYP11B2 reaction, 11-deoxycorticosterone, corticosterone, 18-hydroxycorticosterone and aldosterone were used as references. The detection of the unlabeled references was effected at 260 nm. Subsequently, imaging plates (BAS MS2340, for ^14C samples, Raytest, Straubenhardt, Germany) were exposed to the HPTLC plates for 48 h. The imaging plates were scanned with the phosphoimager system Fuji FLA 3000 (Raytest, Straubenhardt, Germany), and the steroids were quantified.

| Compound | % Inhibition human CYP17 [1] | IC50 [2] | inhibition at 2.5 µM [1] |
| --- | --- | --- | --- |
| C(=C1\CCc2ccccc21)/c1cccnc1.Cl [Compound 1b, 3-[(Z)-2,3-Dihydro-1H-indane-1-ylidenemethyl]pyridine Hydrochloride] | 33% | 92 nM |  |
| Fc1ccc2c(c1)CC/C2=C\c1cccnc1 [Compound 5a, 3-[(E)-(5-Fluoro-2,3-dihydro-1H-indane-1-ylidene)methyl]pyridine Hydrochloride] |  | 6.8 nM | 17% |
| Fc1ccc2c(c1)CC/C2=C/c1cccnc1 [Compound 5b, 3-[(Z)-(5-Fluoro-2,3-dihydro-1H-indane-1-ylidene)methyl]pyridine Hydrochloride] |  | 10.8 nM | 16% |
| Brc1ccc2c(c1)CC/C2=C\c1cccnc1 [Compound 9a, 3-[(E)-(5-Bromo-2,3-dihydro-1H-indane-1-ylidene)methyl]pyridine Hydrochloride] |  | 37.4 nM | 16% |
| Fc1ccc2c(c1)CC/C2=C/c1ccncc1 [Compound 6b, 4-[(Z)-(5-Fluoro-2,3-dihydro-1H-indane-1-ylidene)methyl]pyridine Hydrochloride] |  | 34 nM | 29% |
| Brc1ccc2c(c1)CC/C2=C\c1ccncc1 [Compound 10a, 4-[(E)-(5-Bromo-2,3-dihydro-1H-indane-1-ylidene)methyl]pyridine Hydrochloride] |  | 2640 nM | 24% |
| CCOc1ccc2c(c1)CC/C2=C/c1cccnc1 [Compound 19b, 3-[(Z)-(5-Ethoxy-2,3-dihydro-1H-indane-1-ylidene)methyl]pyridine Hydrochloride] |  | 248 nM | 6% |
| C(=C1/CCc2ccccc21)/c1cccnc1 [Compound 1a, 3-[(E)-2,3-Dihydro-1H-indane-1-ylidenemethyl]pyridine Hydrochloride] |  | 10.6 nM | 14% |
| C(=C1/CCc2ccccc21)/c1cnc[nH]1 [Compound 42a, 5-[(E)-2,3-Dihydro-1H-indane-1-ylidenemethyl]-1H-imidazole] |  | 41 nM | 11% |
